Test: Effects of oral water administration on ITE dosed mice
Assay type: in vivo
Set-up: key to feces appearance: Moderate; Dry
Protocol: Oral injection of water was initiated at the same day i.p. administration of ITE was started. Daily oral gavage at 10 or 20 ml/kg was performed immediately following daily i.p. injection of ITE or DMSO continuously for the entire duration of the study. Both oral and i.p. injection were accidentally skipped at day 14 due to a mistake of the experimenter(s) and all of the other dosing were executed normally. Bodyweights (individual), food consumed (in group), feces weights (in group), and feces appearance (in group) were recorded every two days. Death of animal(s) and approximate cause of death etc. were also recorded.

[1] = ITE-L 200 mg/kg i.p. + Water-0, day 4
[2] = ITE-L 200 mg/kg i.p. + Water-0, day 6
[3] = ITE-L 200 mg/kg i.p. + Water-0, day 8
[4] = ITE-L 200 mg/kg i.p. + Water-0, day 10
[5] = ITE-L 200 mg/kg i.p. + Water-0, day 12
[6] = ITE-L 200 mg/kg i.p. + Water-0, day 14
[7] = ITE-L 200 mg/kg i.p. + Water-0, day 18 (line r16)
[8] = ITE-L 200 mg/kg i.p. + Water-0, day 18 (line r17)
[9] = ITE-L 200 mg/kg i.p. + Water-0, day 20
[10] = ITE-L 200 mg/kg i.p. + Water-0, day 22
[11] = ITE-L 200 mg/kg i.p. + Water-0, day 24
[12] = ITE-L 200 mg/kg i.p. + Water-0, day 26
[13] = ITE-L 200 mg/kg i.p. + Water-0, day 28
[14] = ITE-L 200 mg/kg i.p. + Water-0, day 30
[15] = ITE-L 200 mg/kg i.p. + Water-0, day 32
[16] = ITE-L 200 mg/kg i.p. + Water-0, day 34
[17] = ITE-L 200 mg/kg i.p. + Water-0, day 36
[18] = ITE-L 200 mg/kg i.p. + Water-H 20 ml/kg, day 4
[19] = ITE-L 200 mg/kg i.p. + Water-H 20 ml/kg, day 6
[20] = ITE-L 200 mg/kg i.p. + Water-H 20 ml/kg, day 8
[21] = ITE-L 200 mg/kg i.p. + Water-H 20 ml/kg, day 10
[22] = ITE-L 200 mg/kg i.p. + Water-H 20 ml/kg, day 12
[23] = ITE-L 200 mg/kg i.p. + Water-H 20 ml/kg, day 14
[24] = ITE-L 200 mg/kg i.p. + Water-H 20 ml/kg, day 18 (line r16)
[25] = ITE-L 200 mg/kg i.p. + Water-H 20 ml/kg, day 18 (line r17)
[26] = ITE-L 200 mg/kg i.p. + Water-H 20 ml/kg, day 20
[27] = ITE-L 200 mg/kg i.p. + Water-H 20 ml/kg, day 22
[28] = ITE-L 200 mg/kg i.p. + Water-H 20 ml/kg, day 24
[29] = ITE-L 200 mg/kg i.p. + Water-H 20 ml/kg, day 26
[30] = ITE-L 200 mg/kg i.p. + Water-H 20 ml/kg, day 28
[31] = ITE-L 200 mg/kg i.p. + Water-H 20 ml/kg, day 30
[32] = ITE-L 200 mg/kg i.p. + Water-H 20 ml/kg, day 32
[33] = ITE-L 200 mg/kg i.p. + Water-H 20 ml/kg, day 34
[34] = ITE-L 200 mg/kg i.p. + Water-H 20 ml/kg, day 36
[35] = ITE-L 200 mg/kg i.p. + Water-L 10 ml/kg, day 4
[36] = ITE-L 200 mg/kg i.p. + Water-L 10 ml/kg, day 6
[37] = ITE-L 200 mg/kg i.p. + Water-L 10 ml/kg, day 8
[38] = ITE-L 200 mg/kg i.p. + Water-L 10 ml/kg, day 10
[39] = ITE-L 200 mg/kg i.p. + Water-L 10 ml/kg, day 12
[40] = ITE-L 200 mg/kg i.p. + Water-L 10 ml/kg, day 14
[41] = ITE-L 200 mg/kg i.p. + Water-L 10 ml/kg, day 18 (line r16)
[42] = ITE-L 200 mg/kg i.p. + Water-L 10 ml/kg, day 18 (line r17)
[43] = ITE-L 200 mg/kg i.p. + Water-L 10 ml/kg, day 20
[44] = ITE-L 200 mg/kg i.p. + Water-L 10 ml/kg, day 22
[45] = ITE-L 200 mg/kg i.p. + Water-L 10 ml/kg, day 24
[46] = ITE-L 200 mg/kg i.p. + Water-L 10 ml/kg, day 26
[47] = ITE-L 200 mg/kg i.p. + Water-L 10 ml/kg, day 28
[48] = ITE-L 200 mg/kg i.p. + Water-L 10 ml/kg, day 30
[49] = ITE-L 200 mg/kg i.p. + Water-L 10 ml/kg, day 32
[50] = ITE-L 200 mg/kg i.p. + Water-L 10 ml/kg, day 34
[51] = ITE-L 200 mg/kg i.p. + Water-L 10 ml/kg, day 36

COC(=O)c1csc(C(=O)c2c[nH]c3ccccc23)n1 [ITE, 2-(1′H-indole-3′-carbonyl)-thiazole-4-carboxylic acid methyl ester]
feces appearance [1]: M
number of mice that died [1]: 0
feces appearance [2]: M
number of mice that died [2]: 0
feces appearance [3]: D
number of mice that died [3]: 0
feces appearance [4]: D
number of mice that died [4]: 0
feces appearance [5]: D
number of mice that died [5]: 0
feces appearance [6]: D
number of mice that died [6]: 0
feces appearance [7]: D
number of mice that died [7]: 0
feces appearance [8]: D
number of mice that died [8]: 0
feces appearance [9]: D
number of mice that died [9]: 0
feces appearance [10]: D
number of mice that died [10]: 0
feces appearance [11]: D
number of mice that died [11]: 0
feces appearance [12]: D
number of mice that died [12]: 0
feces appearance [13]: D
number of mice that died [13]: 1
feces appearance [14]: D
number of mice that died [14]: 1
feces appearance [15]: D
number of mice that died [15]: 1
feces appearance [16]: D
number of mice that died [16]: 1
feces appearance [17]: D
number of mice that died [17]: 1
feces appearance [18]: M
number of mice that died [18]: 0
feces appearance [19]: M
number of mice that died [19]: 0
feces appearance [20]: D
number of mice that died [20]: 0
feces appearance [21]: D
number of mice that died [21]: 0
feces appearance [22]: D
number of mice that died [22]: 0
feces appearance [23]: D
number of mice that died [23]: 0
feces appearance [24]: D
number of mice that died [24]: 0
feces appearance [25]: D
number of mice that died [25]: 0
feces appearance [26]: D
number of mice that died [26]: 0
feces appearance [27]: D
number of mice that died [27]: 0
feces appearance [28]: D
number of mice that died [28]: 0
feces appearance [29]: D
number of mice that died [29]: 0
feces appearance [30]: M
number of mice that died [30]: 0
feces appearance [31]: M
number of mice that died [31]: 0
feces appearance [32]: M
number of mice that died [32]: 0
feces appearance [33]: M
number of mice that died [33]: 0
feces appearance [34]: M
number of mice that died [34]: 0
feces appearance [35]: M
number of mice that died [35]: 0
feces appearance [36]: M
number of mice that died [36]: 0
feces appearance [37]: D
number of mice that died [37]: 0
feces appearance [38]: D
number of mice that died [38]: 0
feces appearance [39]: D
number of mice that died [39]: 0
feces appearance [40]: D
number of mice that died [40]: 0
feces appearance [41]: D
number of mice that died [41]: 0
feces appearance [42]: D
number of mice that died [42]: 0
feces appearance [43]: D
number of mice that died [43]: 0
feces appearance [44]: D
number of mice that died [44]: 0
feces appearance [45]: D
number of mice that died [45]: 0
feces appearance [46]: D
number of mice that died [46]: 0
feces appearance [47]: M
number of mice that died [47]: 0
feces appearance [48]: M
number of mice that died [48]: 0
feces appearance [49]: M
number of mice that died [49]: 0
feces appearance [50]: M
number of mice that died [50]: 0
feces appearance [51]: M
number of mice that died [51]: 0

Reference: patent US10632106B2, “Methods of cancer treatment with 2-(1′H-Indole-3′-carbonyl)-thiazole-4-carboxylic acid methyl ester” (Ariagen, Inc., priority 2009, dated 2020)
